Entries after “also recorded” stand apart in the source; their conditions may differ.
Legend:
[1] = system: FSaII murine fibrosarcoma tumors; assay: Longitudinal apoptosis imaging of FSaII tumor in dorsal skin flap chamber (DSFC) with FAM-VAD-FMK; format: in vivo, nu/nu mice
Description: A longitudinal study was performed in nu/nu mice to assess the efficacy of arsenic trioxide (ATO) on FSaII murine fibrosarcoma tumors before and after ATO treatment through a window chamber.
Dorsal skin flap chambers (DSFC) were surgically implanted into the backs of nu/nu mice as follows. Entire implantation procedure was conducted within a laminar flow hood to preserve a sterile field. Skin was washed twice with betadine and allowed to dry. One sterilized chamber piece containing a round window (9 mm) was placed on one side of the dorsal skin fold. Holes for three connecting screws were made through the skin fold connecting with another chamber piece with a similar window. The assembly was then tightened together with screws and nuts through the chamber piece spacers. A circle of cutaneous tissue and fascia was carefully cut away from the skin fold inside the DSFC window, exposing the blood vessels of the subcutaneous tissue adjacent to the striated muscles of the opposing skin fold. Antibiotic ointment (bacitracin zinc/polymyxin B sulfate/neomycin sulfate) was used on the edges of the wound inside the DSFC window. A glass window was placed in the chamber to cover the exposed tissue and secured with a snap C-ring. The surgical wound procedure was then repeated in the opposite DSFC window so that a very thin, transparent layer of fascia and vessels remained visible through both windows (created to facilitate microscope light transmission through the tissue). Finally, the chamber was sutured to the skin.
After surgery, the animals were housed in barrier cages inside a humidified incubator maintained at 32° C. with unrestricted access to food and water. To minimize risk of infection, all mice were given amoxicillin in their drinking water (250 mg per 5 mL water) after DSFC implantation and throughout the experiment.
Tumor cells were implanted into one side of the chamber by temporary removal of the C-ring and glass cover slip. […]

[2] = system: Spleen, Liver, Thymus, and CNS tissues; assay: In vivo detection of morphine-mediated apoptosis: apoptosis positive cell counts in tissue sections after IV FAM-VAD-FMK; settings: bone marrow and liver tissues (conclusion)
Description: Spleen, Liver, Thymus, and CNS tissues were isolated from different treatment groups, frozen and mounted on glass slides. The various cell types were adjusted to 1×10^6 cells/mL and cytospun on a glass slide for analysis by fluorescence microscopy. Sections were photographed and analyzed by MetaMorph analysis program for apoptosis positive cell counts. Counts were analyzed by statistics software.
Spleen, Liver, Thymus, and CNS tissues were isolated from different treatment groups, frozen and mounted on glass slides. Sections were photographed and analyzed by MetaMorph analysis program for apoptosis positive cell counts. Counts were analyzed by statistics software.

[3] = system: SCK mammary tumors; assay: SCK mammary tumor window chamber model, bright-field imaging of hemorrhaging; format: in vivo, A/J mice; settings: 8.0 mg/kg ATO
Description: (§1) Using a mouse window chamber model, SCK mammary tumors were evaluated for levels of apoptosis induction in tumors following irradiation treatment with arsenic trioxide (ATO) and heat. A window chamber, used for viewing tumors, was placed over a fold of skin in A/J mice. 2×10^5 SCK mammary carcinoma cells were injected into the skin fold. The tumors were allowed to grow for 7 to 9 days. In the test mice, tumors were irradiated with 20 Gy, 8 mg/kg ATO and 2 hours later the tumors were heated at 41.5° C. for 60 minutes. Control mice were not treated with irradiation or heat and a placebo was injected instead of ATO.
(§2) After allowing the tumors to grow 7 days, the test mice were first irradiated with 20 Gy. This was immediately followed by an intraperitoneal (I.P.) injection of ATO. The ATO was dissolved in water and injected in a solution of PBS with 5% w/v of dextrose at a concentration of 8 mg/kg. After 2 hours the tumors were heated at 41.5° C. for 60 minutes. Control mice received an I.P. injection of PBS with 5% dextrose.
Prior to treatment, tumors were examined in control mice and designated test mice. Low magnification bright-field image composite photographs of SCK mammary tumors taken through a window chamber reveal a low level of hemorrhaging in all tumors (FIG. 1). […]

[4] = system: SCK tumor cells; assay: Flow cytometry of cells from SCK tumors after in vivo FAM-VAD-FMK labelling; set-up: species or system mouse; settings: 8.0 mg/kg ATO
Description: In another set of mice, the tumors were allowed to grow for 7 days. Control mice received placebo injections as before and test mice received ATO injections as before. After 24 hours all mice received I.V. injections of FAM-VAD-FMK as before. The in vivo apoptosis detection and imaging reagent was allowed to circulate through each mouse for 30 minutes. After imaging tumor-associated apoptosis in vivo, tumor tissue was collected from the window chamber by scraping the tumor out of the chamber into a trypsin solution, stirring for 30 minutes with 10 μg/ml DNase and 5 μg/ml collagenase, filtering the suspension using a […] cell strainer. Flow cytometry was then performed using a FACS Caliber flow cytometer (Becton Dickinson Immunocytometry System, San Jose, Calif.) for the analysis of apoptosis in the cell population obtained from the window chamber. All data was acquired with an event acquisition set for 10,000 events. Data was analyzed using CellQuest Pro cytometer software.

[5] = system: SCK mammary tumors; assay: SCK mammary tumor window chamber model, in vivo apoptosis imaging with FAM-VAD-FMK (488 nm, FITC filter); set-up: species or system A/J mice; settings: 8.0 mg/kg ATO, 8 μg FAM-VAD-FMK IV, 30 min circulation
Description: as §1, §2
Apoptosis was detected by injecting the in vivo apoptosis detection reagent FAM-VAD-FMK into the tail vein of control and test mice. […]
Control mice were given FAM-VAD-FMK injections following placebo injections. […] Test mice that received ATO treatment were given FAM-VAD-FMK injections at 3 hours and 24 hours after ATO treatment, and apoptosis was evaluated as before. […]

In the case of “carboxyfluorescein-valanyl-alanyl-aspartyl(O-methyl)-fluoromethyl ketone [FAM-VAD-FMK]”, the “in vivo detection of apoptosis in living tissue” value ([1]; IV injection) is reported as “works for the in vivo detection of apoptosis” and the “side-effects of the reagent in longitudinal studies” value ([1]; IV injection, repeated in the same animal) is reported as “no side-effects”.

For `CN1CC[C@]23c4c5ccc(O)c4O[C@H]2[C@@H](O)C=C[C@H]3[C@H]1C5` [Morphine, morphine], the “enhancement of apoptosis of LPS activated cells” value [2] was “enhanced apoptosis of LPS activated cells”.

For arsenic trioxide [ATO], the “level of apoptosis in tumor (fluorescence, 10×)” value ([1]; 8.0 mg/kg ATO IP, 3 hours post ATO, 12.0 μg FAM-VAD-FMK IV, 45 min, same tumor before vs after) was “significant level of apoptosis; also recorded: increase in apoptosis within the tumor is clear”, the “level of hemorrhaging in tumor” value ([3]; 3 hours after completion of treatment, vs placebo control) was “Increased levels of hemorrhaging” and the “level of hemorrhaging in tumor” value ([3]; 24 hours after completion of treatment, vs 3 hour photograph) was “amount of hemorrhaging has also increased over time”. For the same compound, the “apoptotic cells (apoptosis induction rate)” value ([4]; 24 hours after treatment, flow cytometry, 10,000 events, control mouse 18%) was 39%, the “increase in apoptosis versus control mouse” value ([4]; 24 hours, flow cytometry) was “two-fold increase” and the “level of apoptosis in tumor (fluorescence)” value ([5]; 3 hours post ATO) was “substantial increase in the level of apoptosis; also recorded: high level of apoptosis”. The “level of apoptosis in tumor (fluorescence)” value ([5]; 24 hours post ATO) was “even higher; also recorded: higher level of apoptosis”.
